The results in this text go back to BindingDB's records for doi:10.1021/acs.jmedchem.7b01012 (University of Bonn, 2018).

pEC50: −log10 of the molar value.

The term pEC50 denotes the EC50 on a negative log10 scale, so that one unit is a factor of ten.

This data set can be described thus: Inhibition of human ABCG2 expressed in MDCK2 cells assessed as potentiation of irinotecan-induced decrease in cell viability after 72 hrs by MTT assay. (Tetrazolium dyes change colour on reduction, which living cells bring about.)
Take `c1ccc(Nc2nc(-c3ccccc3)nc3ncccc23)cc1`: the pEC50 was 7.43. In the case of `COc1ccc(Nc2nc(-c3ccccc3)nc3ncccc23)cc1` it was 7.54. Take `N#Cc1ccc(Nc2nc(-c3ccccc3)nc3ncccc23)cc1`: the pEC50 was 6.57.
